Results on two compounds are retold here after patent US20160038526A1, “TREATMENT OF PROSTATE CANCER” (THOMAS JEFFERSON UNIVERSITY, priority 2012, published 2016).

The target of experiment [1] is Stat3 (Homo sapiens, UniProt P40763). Put plainly: IL-6-induced nuclear translocation of Stat3 in DU145 cells (immunofluorescence). As to conditions: 2 hours pretreatment, 10 nmol/L IL-6 30 minutes. On the set-up: endogenous in cells; host or cells: DU145. Format: cell-based. The method, then: DU145 prostate cancer cells were pretreated with N6BAP or vehicle (DMSO) for 2 hours and then stimulated with 10 nmol/L IL-6 for 30 minutes. Cells were fixed with 100% methanol for 15 min and subsequently permeabilized with 0.1% Triton X-100 in PBS (pH 7.4). After blocking with 2% bovine serum albumin in PBS, cells were incubated with an antibody specific for Stat3 at 4° C. for 2 hours. Cells were then washed with PBS and incubated with FITC-conjugated secondary antibody (Jackson ImmunoResearch) at room temperature for 1 hour. The images were taken by using an inverted fluorescence microscopy (Carl Zeiss).

The subject of experiment [2] is Stat5a/b. Put plainly: Clinical prostate cancers ex vivo in explant organ cultures: nuclear Stat5a/b immunohistochemistry. Conditions: 7 days, N6BAP 5, 10, 25, 50 and 100 μM; C5 100 m. Format: cell-based, human. The method, then: The specimens comprised de-identified excess tissue obtained after the completion of pathology diagnosis. A zero-sample prior to organ culture was formalin-fixed for each individual prostate cancer for the analysis of the nuclear Stat5a/b status. The prostate organ cultures were performed as described earlier (Ahonen et al., Endocrinology (2002), 143:228-238). Briefly, prostate cancer tissue was cut into approximately 1 mm^3 pieces in a plain culture medium and transferred onto lens papers lying on stainless steel grids in petri dishes. The medium was phenol-free medium 199 with Earle's salts (Sigma) containing dialyzed 5% fetal calf serum, G-penicillin (100 IU/ml), streptomycin sulfate ([…]), and glutamine (100 μg/ml). […] Tissue explants were cultured in a medium containing the N6BAP or control compound C5 at indicated concentrations (C5: […]; N6BAP: 5, 10, 25, 50 and 100 μM) 7 days, after which the explants were fixed in formalin and analyzed for Stat5a/b activation and viability of prostate cancer epithelial compartment. Viability of the epithelial cells in the prostate cancer explants at the end of the cultures were scored by counting the viable epithelial cells per explant.
Nuclear Stat5a/b indexes were determined by counting the Stat5-positive cells per 500 epithelial cells in the cultured explants in each treatment group.

In experiment [3] the target is T1, Stat5a (Homo sapiens, UniProt P42229).
T1 sequence (P42229 1-794): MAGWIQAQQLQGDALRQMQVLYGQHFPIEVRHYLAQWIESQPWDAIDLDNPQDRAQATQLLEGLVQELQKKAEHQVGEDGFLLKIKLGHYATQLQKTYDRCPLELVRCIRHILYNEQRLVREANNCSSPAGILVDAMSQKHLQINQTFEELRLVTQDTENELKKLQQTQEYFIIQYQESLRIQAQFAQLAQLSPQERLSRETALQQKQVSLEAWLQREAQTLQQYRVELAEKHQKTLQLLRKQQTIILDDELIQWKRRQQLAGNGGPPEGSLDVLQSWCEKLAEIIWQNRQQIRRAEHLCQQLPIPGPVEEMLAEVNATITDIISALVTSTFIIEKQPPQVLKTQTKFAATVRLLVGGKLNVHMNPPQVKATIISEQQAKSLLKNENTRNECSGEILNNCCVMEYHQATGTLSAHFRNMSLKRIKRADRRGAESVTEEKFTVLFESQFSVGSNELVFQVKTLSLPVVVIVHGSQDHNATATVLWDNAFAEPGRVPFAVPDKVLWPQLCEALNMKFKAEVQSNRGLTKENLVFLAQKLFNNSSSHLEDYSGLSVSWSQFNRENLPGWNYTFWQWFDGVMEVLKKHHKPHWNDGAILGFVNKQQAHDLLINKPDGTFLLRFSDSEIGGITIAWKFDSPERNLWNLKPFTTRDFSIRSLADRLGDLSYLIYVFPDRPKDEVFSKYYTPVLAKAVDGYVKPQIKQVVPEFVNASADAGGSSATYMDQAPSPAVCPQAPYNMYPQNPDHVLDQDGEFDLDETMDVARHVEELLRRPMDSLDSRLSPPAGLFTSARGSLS
Put plainly: Stat5 dimerization assay (FLAG-/MYC-tagged Stat5a co-immunoprecipitation) in PC-3 cells. Format: cell-based. Also noted: expressed in transfected cells; host or cells: PC-3. Conditions: 2 hours pretreatment, hPrl 10 nM 30 minutes. On the procedure:
FLAG-tagged Stat5a and MYC-tagged Stat5a were generated as follows. Plasmid pCMV3-FLAG-Stat5a, pCMV3-MYC-Stat5a and pPrlR were co-transfected using FuGENE6 (Roche) into PC-3 cells (2 μg of each plasmid per 1×10^7 cells). The cells were starved for 20 hours, pretreated with N6BAP for 2 hours, then stimulated with hPrl (10 nM) in RPMI 1640 without serum for 30 minutes. The cell lysates were immunoprecipitated with 25 μl anti-FLAG M2 […] affinity gel (2 μg/ml, Sigma), anti-MYC pAb (1 μg/ml, Upstate) or normal rabbit serum (NRS). The primary antibodies were used in the immunoblottings at the following concentrations: anti-FLAG pAb (1:1000; Stratagene), anti-MYC mAb (1:1000; Sigma), anti-Stat5a/b mAb (1:250) (Transduction Laboratories) detected by horseradish peroxidase-conjugated secondary antibodies.
Lanes 1, 2, 4, 6, 8, 10, 12, 14 and 16 represent cells stimulated with human prolactin (Prl) for 30 minutes which induces dimerization of Stat5. Two hours prior to Prl-stimulation, the cells had been treated with DMSO (lanes 1-4), the control compound C5 (lanes 5 and 6) or N6BAP (lanes 7-16) to test whether the Stat5a/b-inhibitor compound, N6BAP, would be able to inhibit dimerization of Stat5. […] It should be noted the drug effect in this study was not due to cell apoptosis induction, as the treatment time was only 2 hours. […]

Molecules are shown by their SMILES.

Sequence of Stat3 (P40763 whole entry, species assumed): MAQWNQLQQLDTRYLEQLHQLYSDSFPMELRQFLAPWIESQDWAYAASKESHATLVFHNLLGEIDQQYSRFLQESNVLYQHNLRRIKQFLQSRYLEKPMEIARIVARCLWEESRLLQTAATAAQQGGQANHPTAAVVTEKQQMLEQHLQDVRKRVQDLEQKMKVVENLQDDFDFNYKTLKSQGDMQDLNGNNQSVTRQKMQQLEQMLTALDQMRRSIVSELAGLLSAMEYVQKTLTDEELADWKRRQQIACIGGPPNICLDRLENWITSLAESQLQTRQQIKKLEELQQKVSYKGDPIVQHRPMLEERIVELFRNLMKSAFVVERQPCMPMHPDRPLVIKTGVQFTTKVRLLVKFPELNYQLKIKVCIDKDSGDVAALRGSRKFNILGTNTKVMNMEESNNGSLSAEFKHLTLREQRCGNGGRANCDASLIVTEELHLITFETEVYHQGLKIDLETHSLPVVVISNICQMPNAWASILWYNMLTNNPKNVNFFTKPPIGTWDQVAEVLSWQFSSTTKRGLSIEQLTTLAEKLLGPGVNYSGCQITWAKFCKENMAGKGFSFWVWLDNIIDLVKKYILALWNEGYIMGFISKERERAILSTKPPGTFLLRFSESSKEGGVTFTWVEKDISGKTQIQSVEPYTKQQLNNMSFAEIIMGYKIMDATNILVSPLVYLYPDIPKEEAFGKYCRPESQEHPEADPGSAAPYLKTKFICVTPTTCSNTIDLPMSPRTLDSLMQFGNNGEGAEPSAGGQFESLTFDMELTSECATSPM

`Cc1cc(Nc2nc(N[C@@H](C)c3ncc(F)cn3)ncc2Cl)n[nH]1` [AZD1480, reference compound]: the “nuclear translocation of IL-6-induced Stat3” value in experiment [1] is reported as “blocks nuclear translocation of IL-6-induced Stat3 efficiently”.
In the case of `Nc1nc(SCc2cccnc2)[nH]c(=O)c1NC(=O)c1ccco1` [C5, reference compound], the “nuclear Stat5 expression in explant organ cultures” value in experiment [2] is “Intensive positive immunostaining for nuclear Stat5”. Besides, in experiment [3], the “dimerization of Stat5a” value is reported as “did not inhibit dimerization of Stat5a”.
